Molecular target: T1, Drak2 (Homo sapiens, UniProt O94768)
T1 sequence (O94768 1-372): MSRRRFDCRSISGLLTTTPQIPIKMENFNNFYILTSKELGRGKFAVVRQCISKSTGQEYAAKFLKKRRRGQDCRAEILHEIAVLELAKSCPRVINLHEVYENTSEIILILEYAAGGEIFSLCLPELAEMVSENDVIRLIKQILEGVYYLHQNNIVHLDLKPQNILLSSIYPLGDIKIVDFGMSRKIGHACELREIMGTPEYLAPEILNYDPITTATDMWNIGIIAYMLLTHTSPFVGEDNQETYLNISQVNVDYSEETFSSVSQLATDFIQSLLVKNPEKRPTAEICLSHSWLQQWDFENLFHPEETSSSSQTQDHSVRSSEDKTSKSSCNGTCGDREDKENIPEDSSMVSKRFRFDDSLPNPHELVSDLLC
Test: Drak2 activity test, ADP-Glo kinase assay (Promega)
Format: biochemical
Details: inhibition of Drak2 kinase activity, 2 h room temperature, activity range classes, read-out: IC50_Drak2

| IC50 [nM] | Structure (SMILES) |
| --- | --- |
| 11 to 100 | COc1cc(-c2cncc(-c3cc(NC(=O)CC4CCCC4)cs3)n2)ccc1C(=O)N1CCC(OC)CC1 [Example B54, 2-cyclopentyl-N-(5-(6-(3-methoxy-4-(4-methoxypiperidine-1-carbonyl)phenyl)pyrazin-2-yl)thiophen-3-yl)acetamide] |
| 11 to 100 | CCCCC(=O)Nc1csc(-c2cncc(-c3ccc(C(=O)N(C)CCN(C)C)c(OC)c3)n2)c1 [Example B55, N-(2-(dimethylamino)ethyl)-2-methoxy-N-methyl-4-(6-(4-pentanamidothiophen-2-yl)pyrazin-2-yl)benzamide] |
| < 10 | COc1cc(-c2cncc(-c3cc(NC(=O)CC4CC4)cs3)n2)ccc1C(=O)N(C)CCN(C)C [Example B56, 4-(6-(4-(2-cyclopropylacetamido)thiophen-2-yl)pyrazin-2-yl)-N-(2-(dimethylamino)ethyl)-2-methoxy-N-methylbenzamide] |
| 11 to 100 | COc1cc(-c2cncc(-c3cc(NC(=O)CC4CCC4)cs3)n2)ccc1C(=O)N(C)CCN(C)C [Example B57, 4-(6-(4-(2-cyclobutylacetamido)thiophen-2-yl)pyrazin-2-yl)-N-(2-(dimethylamino)ethyl)-2-methoxy-N-methylbenzamide] |
| 11 to 100 | COc1cc(-c2cncc(-c3cc(NC(=O)CC4CCCC4)cs3)n2)ccc1C(=O)N(C)CCN(C)C [Example B58, 4-(6-(4-(2-cyclopentylacetamido)thiophen-2-yl)pyrazin-2-yl)-N-(2-(dimethylamino)ethyl)-2-methoxy-N-methylbenzamide] |
| < 10 | CCCCC(=O)Nc1csc(-c2cncc(-c3ccc(C(=O)N(C)C4CCN(C)CC4)c(OC)c3)n2)c1 [Example B59, 2-methoxy-N-methyl-N-(1-methylpiperidin-4-yl)-4-(6-(4-pentanamidothiophen-2-yl)pyrazin-2-yl)benzamide] |
| 11 to 100 | COc1cc(-c2cncc(-c3cc(NC(=O)CC4CC4)cs3)n2)ccc1C(=O)N(C)C1CCN(C)CC1 [Example B60, 4-(6-(4-(2-cyclopropylacetamido)thiophen-2-yl)pyrazin-2-yl)-2-methoxy-N-methyl-N-(1-methylpiperidin-4-yl)benzamide] |
| 11 to 100 | COc1cc(-c2cncc(-c3cc(NC(=O)CC4CCCC4)cs3)n2)ccc1C(=O)N(C)C1CCN(C)CC1 [Example B61, 4-(6-(4-(2-cyclopentylacetamido)thiophen-2-yl)pyrazin-2-yl)-2-methoxy-N-methyl-N-(1-methylpiperidin-4-yl)benzamide] |
| 11 to 100 | COc1cc(-c2cncc(-c3cc(NC(=O)CC4CCC4)cs3)n2)ccc1C(=O)Nc1nnco1 [Example B62, 4-(6-(4-(2-cyclobutylacetamido)thiophen-2-yl)pyrazin-2-yl)-2-methoxy-N-(1,3,4-oxadiazol-2-yl)benzamide] |
| < 10 | COc1cc(-c2cncc(-c3cc(NC(=O)CC4CCC4)cs3)n2)ccc1C(=O)N(C)C1CCN(C)CC1 [Example B63, 4-(6-(4-(2-cyclobutylacetamido)thiophen-2-yl)pyrazin-2-yl)-2-methoxy-N-methyl-N-(1-methylpiperidin-4-yl)benzamide] |
| 11 to 100 | COc1cc(-c2cncc(-c3cc(NC(=O)CC4CCCC4)cs3)n2)ccc1C(=O)Nc1nnco1 [Example B64, 4-(6-(4-(2-cyclopentylacetamido)thiophen-2-yl)pyrazin-2-yl)-2-methoxy-N-(1,3,4-oxadiazol-2-yl)benzamide] |
| 1000 to 10000 | CCCCC(=O)Nc1csc(-c2nccc(-c3ccc(C(=O)N(C)C4CCN(C)CC4)c(OC)c3)n2)c1 [Example B66, 2-methoxy-N-methyl-N-(1-methylpiperidin-4-yl)-4-(2-(4-pentanamidothiophen-2-yl)pyrimidin-4-yl)benzamide] |
| < 10 | CCCCC(=O)Nc1csc(-c2cncc(-c3ccc(C(=O)N(C)C4CCN(C(C)C)CC4)c(OC)c3)n2)c1 [Example B68, N-(1-isopropylpiperidin-4-yl)-2-methoxy-N-methyl-4-(6-(4-pentanamidothiophen-2-yl)pyrazin-2-yl)benzamide] |
| < 10 | CCCCC(=O)Nc1csc(-c2cncc(-c3ccc(C(=O)N(C)C4CCN(C5CC5)CC4)c(OC)c3)n2)c1 [Example B69, N-(1-cyclopropylpiperidin-4-yl)-2-methoxy-N-methyl-4-(6-(4-pentanamidothiophen-2-yl)pyrazin-2-yl)benzamide] |
| 101 to 1000 | CCCCC(=O)Nc1csc(-c2cncc(-c3ccc(C(=O)N(C)C4CCN(CC(F)(F)F)CC4)c(OC)c3)n2)c1 [Example B70, 2-methoxy-N-methyl-4-(6-(4-pentanamidothiophen-2-yl)pyrazin-2-yl)-N-(1-(2,2,2-trifluoroethyl)piperidin-4-yl)benzamide] |
| 11 to 100 | CCCCC(=O)Nc1csc(-c2cncc(-c3ccc(C(=O)N(C)C4CCN(c5cnn(C)c5)CC4)c(OC)c3)n2)c1 [Example B71, 2-methoxy-N-methyl-N-(1-(1-methyl-1H-pyrazol-4-yl)piperidin-4-yl)-4-(6-(4-pentanamidothiophen-2-yl)pyrazin-2-yl)benzamide] |
| 101 to 1000 | CCCCC(=O)Nc1csc(-c2cncc(-c3ccc(C(=O)N(C)C4CCN(c5ncccn5)CC4)c(OC)c3)n2)c1 [Example B72, 2-methoxy-N-methyl-4-(6-(4-pentanamidothiophen-2-yl)pyrazin-2-yl)-N-(1-(pyrimidin-2-yl)piperidin-4-yl)benzamide] |
| 101 to 1000 | CCCCC(=O)Nc1csc(-c2cncc(-c3ccc(C(=O)N(C)C4CCN(C)CC4)c(F)c3)n2)c1 [Example B73, 2-fluoro-N-methyl-N-(1-methylpiperidin-4-yl)-4-(6-(4-pentanamidothiophen-2-yl)pyrazin-2-yl)benzamide] |
| 101 to 1000 | CCCCC(=O)Nc1csc(-c2cncc(-c3cc(F)c(C(=O)N(C)C4CCN(C)CC4)c(F)c3)n2)c1 [Example B74, 2,6-difluoro-N-methyl-N-(1-methylpiperidin-4-yl)-4-(6-(4-pentanamidothiophen-2-yl)pyrazin-2-yl)benzamide] |
| > 10000 | CCCCC(=O)Nc1csc(-c2cccc(-c3ccc(C(=O)N(C4CC4)C4CCN(C)CC4)c(OC)c3)n2)c1 [Example B75, N-cyclopropyl-2-methoxy-N-(1-methylpiperidin-4-yl)-4-(6-(4-pentanamidothiophen-2-yl)pyridin-2-yl)benzamide] |
| 11 to 100 | CCCCC(=O)Nc1csc(-c2cncc(-c3ccc(C(=O)N(C4CC4)C4CCN(C)CC4)c(OC)c3)n2)c1 [Example B76, N-cyclopropyl-2-methoxy-N-(1-methylpiperidin-4-yl)-4-(6-(4-pentanamidothiophen-2-yl)pyrazin-2-yl)benzamide] |
| 11 to 100 | CCCCC(=O)Nc1csc(-c2cncc(-c3ccc(C(=O)N(C4CC4)C4CCN(C5CC5)CC4)c(OC)c3)n2)c1 [Example B78, N-cyclopropyl-N-(1-cyclopropylpiperidin-4-yl)-2-methoxy-4-(6-(4-pentanamidothiophen-2-yl)pyrazin-2-yl)benzamide] |
| 11 to 100 | COc1cc(-c2cncc(-c3cc(NC(=O)CC4CC4)cs3)n2)ccc1C(=O)N(C)OC [Example B79, 4-(6-(4-(2-cyclopropylacetamido)thiophen-2-yl)pyrazin-2-yl)-N,2-dimethoxy-N-methylbenzamide] |
| 11 to 100 | COc1cc(-c2cncc(-c3cc(NC(=O)CC45CC(C4)C5)cs3)n2)ccc1C(=O)Nc1nnco1 [Example B80, 4-(6-(4-(2-(bicyclo[1.1.1]pentan-1-yl)acetamido)thiophen-2-yl)pyrazin-2-yl)-2-methoxy-N-(1,3,4-oxadiazol-2-yl)benzamide] |
| 11 to 100 | COc1cc(-c2cncc(-c3cc(NC(=O)CC4CCC4)cs3)n2)ccc1C(=O)N(C)OC [Example B81, 4-(6-(4-(2-cyclobutylacetamido)thiophen-2-yl)pyrazin-2-yl)-N,2-dimethoxy-N-methylbenzamide] |
| 101 to 1000 | COc1cc(-c2cncc(-c3cc(NC(=O)CC4(C)COC4)cs3)n2)ccc1C(=O)N(C)C1CCN(C)CC1 [Example B82, 2-methoxy-N-methyl-4-(6-(4-(2-(3-methyloxetan-3-yl)acetamido)thiophen-2-yl)pyrazin-2-yl)-N-(1-methylpiperidin-4-yl)benzamide] |
| 11 to 100 | COc1cc(-c2cncc(-c3cc(NC(=O)CC4CC(F)(F)C4)cs3)n2)ccc1C(=O)N(C)C1CCN(C)CC1 [Example B83, 4-(6-(4-(2-(3,3-difluorocyclobutyl)acetamido)thiophen-2-yl)pyrazin-2-yl)-2-methoxy-N-methyl-N-(1-methylpiperidin-4-yl)benzamide] |
| 11 to 100 | COc1cc(-c2cncc(-c3cc(NC(=O)C4CC45CCC5)cs3)n2)ccc1C(=O)N(C)C1CCN(C)CC1 (stereo not drawn) [Example B84, N-(5-(6-(3-methoxy-4-(methyl(1-methylpiperidin-4-yl)carbamoyl)phenyl)pyrazin-2-yl)thiophen-3-yl)spiro[2.3]hexane-1-carboxamide] |
| 101 to 1000 | COc1cc(-c2cncc(-c3cc(NC(=O)CC4(c5ccc(C(F)(F)F)cc5)CCC4)cs3)n2)ccc1C(=O)N(C)C1CCN(C)CC1 [Example B85, 2-methoxy-N-methyl-N-(1-methylpiperidin-4-yl)-4-(6-(4-(2-(1-(4-(trifluoromethyl)phenyl)cyclobutyl)acetamido)thiophen-2-yl)pyrazin-2-yl)benzamide] |
| 101 to 1000 | CCC1(CC(=O)Nc2csc(-c3cncc(-c4ccc(C(=O)N(C)C5CCN(C)CC5)c(OC)c4)n3)c2)CCC1 [Example B86, 4-(6-(4-(2-(1-ethylcyclobutyl)acetamido)thiophen-2-yl)pyrazin-2-yl)-2-methoxy-N-methyl-N-(1-methylpiperidin-4-yl)benzamide] |
